Where “and” joins values, the source holds several entries; their conditions need not be identical. Equal values may be shown once. Read-outs that look alike come from different tables or passages of the source.
How the values were obtained:
[1] = for Kobs: 190 μM 3, Tris pH 7.8, 6 °C
[2] = target: bovine serum albumin (BSA) (Bos taurus, UniProt P02769); test: BSA tolerance to DMSO, Trp emission fluorescence
glucose oxidase (GOx) [3] = target: T1, glucose oxidase (GOx) (Aspergillus niger, UniProt P13006)
T1 sequence (P13006 17-605): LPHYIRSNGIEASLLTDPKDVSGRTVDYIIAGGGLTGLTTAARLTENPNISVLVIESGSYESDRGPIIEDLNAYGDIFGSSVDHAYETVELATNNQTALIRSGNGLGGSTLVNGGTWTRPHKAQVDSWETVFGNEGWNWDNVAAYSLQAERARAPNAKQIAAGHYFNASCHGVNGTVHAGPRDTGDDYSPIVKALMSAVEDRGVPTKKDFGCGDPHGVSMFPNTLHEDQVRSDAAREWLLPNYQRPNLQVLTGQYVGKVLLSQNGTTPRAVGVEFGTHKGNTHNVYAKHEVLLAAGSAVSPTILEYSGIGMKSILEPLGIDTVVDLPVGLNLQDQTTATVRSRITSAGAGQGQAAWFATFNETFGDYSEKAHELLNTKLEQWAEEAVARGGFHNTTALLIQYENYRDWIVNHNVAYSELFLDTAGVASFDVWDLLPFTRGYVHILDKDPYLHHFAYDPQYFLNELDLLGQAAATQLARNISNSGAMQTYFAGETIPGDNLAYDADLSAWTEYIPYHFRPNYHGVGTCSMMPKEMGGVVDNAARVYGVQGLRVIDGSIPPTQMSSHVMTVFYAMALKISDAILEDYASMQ

scrambled RNase A [4] = target: T2, scrambled RNase A (Bos taurus, UniProt P61823); test: Folding of scrambled RNase A at pH 5.4 (cCMP hydrolysis); conditions: in <2 h
T2 sequence (P61823 27-150): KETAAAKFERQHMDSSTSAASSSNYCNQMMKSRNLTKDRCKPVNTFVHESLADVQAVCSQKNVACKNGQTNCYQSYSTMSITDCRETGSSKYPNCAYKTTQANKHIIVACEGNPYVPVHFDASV

[5] = Equilibration of the thiol-disulfide DCL of building blocks 1-4 followed by HPLC-MS
Procedure: DMSO percentage is 2.5% v/v. […] DCLs were analyzed by HPLC-MS until equilibration without stirring at 6 °C.
Control DCL. […] DMSO percentage is 2.5% v/v. Regarding Secox catalyzed DCL, different stocks of Secox were carried out in order to study the percentages of Secox. […] The DCLs were prepared at 6 °C without stirring and analyzed in several hours until the complete stabilization.

glucose oxidase (GOx) [6] = target: T1, glucose oxidase (GOx); test: GOx tolerance to Secox, Trp emission fluorescence; parameters: purchased Sigma Aldrich
[7] = Spermine-templated DCL of building blocks 2 and 3; conditions: two building blocks DCL with spermine; 5% (mol); control 96 h
Procedure: (§1) Building blocks 2 and 3 equipped with carboxylate moieties to establish interactions with the protonated amine groups of the spermine were allowed to equilibrate at pH 7.8 and 6 °C (Fig. 8a). As expected in our control experiment, the major component in the absence of spermine was the linear tetramer (2)2(3)2. After the addition of spermine, the linear tetramer “decomposed” in order to form mainly the cyclic tetramer of (2)4, and the (3)2 dimer (Fig. 8a). As it was reported, several studies determined that the spermine was threaded through the macrocycle fixing the configuration to a highly symmetric stereoisomer of (2)4[36]. […] The precise composition of the DCL (with and without spermine), was assessed by measuring the relative peak area (RPA). Indeed, the normalized change of RPA was used to quantify the spermine influence in the outcome (Supplementary Fig. 42)[46]. The same template (spermine) was tested in our reference DCL of four building blocks (1–4) in the absence and presence of Secox (Fig. 8b). […] Additionally, two different templates were tested to confirm the absence of conflict between selenocystine and the templating effect. Spermidine and NADPH were introduced in our 4 building blocks DCL (1–4) in the absence and presence of Secox, leading to the amplification of different species and getting the same results as the non-catalyzed DCLs (Supplementary Figs. 44, 45, Supplementary Tables 7–10, and Supplementary Methods).
The DCL was stabilized at 96 h. […] The mixture was stabilized after 24 h. […] The DCL was stabilized at 96 h. […] The DCL was analyzed in 96 h after equilibration. DCLs were performed without stirring at 6 °C and analyzed by HPLC-MS.

scrambled RNase A [8] = target: T2, scrambled RNase A; test: Folding of scrambled RNase A at pH 7.8 (cCMP hydrolysis); conditions: for V0: Secox / GSH 1 mM/5 mM
[9] = Spermine-templated DCL of building blocks 1-4; conditions: four building blocks DCL with spermine; 5% mol
Procedure: as §1
The mixture was stabilized in 96 h. […] The mixture was stabilized after 24 h. […] It was stabilized in 24 h. […] DCL was equilibrated in 96 h. DCLs were performed without stirring at 6 °C and analyzed by HPLC-MS.

[10] = Slow DCL system of building blocks 5-8, equilibration by HPLC-MS; conditions: slow DCL 5-8; 5% mol (18.3 μM); 20% (v/v) DMSO, pH 7.8, 6 °C; control 192 h
Procedure: To broaden the scope of selenocystine we tested this catalyst in a slow disulfide-exchange system. The DCL comprised 4 building blocks (5–8)[37], three of them being aliphatic thiols with pKa values around 9 to slow down the exchange reaction (Fig. 7a). Due to solubility issues, a 20% (v/v) DMSO was added and the reaction mixture was diluted. […] The different oligomers were identified by HPLC-MS (Supplementary Figs. 21–30).
Control DCL. […] The DCLs were analyzed until stabilization.

[11] = 10 % v/v DMSO, Supplementary Figure 48 b
[12] = 20 % v/v DMSO, Supplementary Figure 48 b
[13] = 60 % v/v DMSO, Supplementary Figure 48 b

bovine serum albumin (BSA), sequence (P02769 25-607): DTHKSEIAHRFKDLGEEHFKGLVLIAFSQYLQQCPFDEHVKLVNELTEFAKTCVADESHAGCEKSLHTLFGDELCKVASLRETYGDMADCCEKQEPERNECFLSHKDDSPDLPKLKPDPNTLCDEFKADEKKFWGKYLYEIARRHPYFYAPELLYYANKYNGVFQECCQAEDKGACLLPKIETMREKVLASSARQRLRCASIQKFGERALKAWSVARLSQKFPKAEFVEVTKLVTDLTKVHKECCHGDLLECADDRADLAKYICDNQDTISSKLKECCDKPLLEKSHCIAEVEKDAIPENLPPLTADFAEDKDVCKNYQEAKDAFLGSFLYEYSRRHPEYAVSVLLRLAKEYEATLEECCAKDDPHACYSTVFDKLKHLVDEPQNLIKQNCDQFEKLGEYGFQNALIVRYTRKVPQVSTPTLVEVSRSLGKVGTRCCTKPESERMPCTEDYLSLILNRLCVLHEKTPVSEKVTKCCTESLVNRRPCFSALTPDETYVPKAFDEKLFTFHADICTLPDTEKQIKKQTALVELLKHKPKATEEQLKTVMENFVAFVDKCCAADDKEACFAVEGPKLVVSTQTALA

**Q.** Which results are given for `C[S+](C)[O-]` [DMSO]?
**A.** time until total completion of homodimerization ([1]; 20% (v/v)): 4 days; Kobs ([1]; 20% (v/v) DMSO, 0% Secox): 0.068 ± 0.001 M⁻¹ s⁻¹; DMSO concentration tolerated by BSA [2]: up to 10%; DMSO concentration tolerated by GOx (no shift of Trp emission maximum) (glucose oxidase (GOx) [3]): up to 20%; Fluorescence Emission (Average Value) (glucose oxidase (GOx) [3]; 1 % v/v DMSO): 4921084; Wavelenght (nm) of Trp emission maximum (glucose oxidase (GOx) [3]; 1 % v/v DMSO): 329 nm; Fluorescence Emission (Average Value) (glucose oxidase (GOx) [3]; 2.5 % v/v DMSO): 5438068; Wavelenght (nm) of Trp emission maximum (glucose oxidase (GOx) [3]; 2.5 % v/v DMSO): 329 nm; Wavelenght (nm) of Trp emission maximum (glucose oxidase (GOx) [3]; 2.5 % v/v DMSO, Supplementary Figure 48 b): 338 nm; Fluorescence Emission (Average Value) (glucose oxidase (GOx) [3]; 5 % v/v DMSO): 4507601; Wavelenght (nm) of Trp emission maximum (glucose oxidase (GOx) [3]; 5 % v/v DMSO): 329 nm; Wavelenght (nm) of Trp emission maximum (glucose oxidase (GOx) [3]; 5 % v/v DMSO, Supplementary Figure 48 b): 337 nm; Fluorescence Emission (Average Value) (glucose oxidase (GOx) [3]; 7.5 % v/v DMSO): 4900904; Wavelenght (nm) of Trp emission maximum (glucose oxidase (GOx) [3]; 7.5 % v/v DMSO): 329 nm; Fluorescence Emission (Average Value) (glucose oxidase (GOx) [3]; 10 % v/v DMSO): 4964780; Wavelenght (nm) of Trp emission maximum (glucose oxidase (GOx) [3]; 10 % v/v DMSO): 329 nm; Fluorescence Emission (at maximum) (glucose oxidase (GOx) [3]; [11]): 7117020; Wavelenght (nm) of Trp emission maximum (glucose oxidase (GOx) [3]; [11]): 336 nm; Fluorescence Emission (Average Value) (glucose oxidase (GOx) [3]; 20 % v/v DMSO): 5321027; Wavelenght (nm) of Trp emission maximum (glucose oxidase (GOx) [3]; 20 % v/v DMSO): 329 nm; Fluorescence Emission (at maximum) (glucose oxidase (GOx) [3]; [12]): 7139475; Wavelenght (nm) of Trp emission maximum (glucose oxidase (GOx) [3]; [12]): 335 nm; Fluorescence Emission (Average Value) (glucose oxidase (GOx) [3]; 40 % v/v DMSO): 6356217; Wavelenght (nm) of Trp emission maximum (glucose oxidase (GOx) [3]; 40 % v/v DMSO): 336 nm; Fluorescence Emission (Average Value) (glucose oxidase (GOx) [3]; 50 % v/v DMSO): 10423932; Wavelenght (nm) of Trp emission maximum (glucose oxidase (GOx) [3]; 50 % v/v DMSO): 337 nm; Fluorescence Emission (Average Value) (glucose oxidase (GOx) [3]; 60 % v/v DMSO): 13490702; Wavelenght (nm) of Trp emission maximum (glucose oxidase (GOx) [3]; 60 % v/v DMSO): 338 nm; Fluorescence Emission (at maximum) (glucose oxidase (GOx) [3]; [13]): 8900408; Wavelenght (nm) of Trp emission maximum (glucose oxidase (GOx) [3]; [13]): 327 nm; Fluorescence Emission (Average Value) (glucose oxidase (GOx) [3]; 70 % v/v DMSO): 30698968; Wavelenght (nm) of Trp emission maximum (glucose oxidase (GOx) [3]; 70 % v/v DMSO): 339 nm; Fluorescence Emission (Average Value) (glucose oxidase (GOx) [3]; 80 % v/v DMSO): 28715570; Wavelenght (nm) of Trp emission maximum (glucose oxidase (GOx) [3]; 80 % v/v DMSO): 344 nm; Wavelenght (nm) of Trp emission maximum (glucose oxidase (GOx) [3]; 97 % v/v DMSO): 349 nm; Fluorescence Emission (at maximum) (glucose oxidase (GOx) [3]; 97 % v/v DMSO, Supplementary Figure 48 b): 24089455

**Q.** Which results are given for `N[C@@H](C[Se][Se]C[C@H](N)C(=O)O)C(=O)O` [Secox, selenocystine]?
**A.** Kobs ([1]; 1% (mol), 2.5% (v/v) DMSO): 0.091 ± 0.002 M⁻¹ s⁻¹; time until total completion of homodimerization ([1]; 1% mol): 3 days; time until total completion of homodimerization ([1]; 2.5% mol): 2 days; Kobs ([1]; 5% (mol) catalyst, 2.5% (v/v) DMSO, uncatalyzed 0.014 ± 0.001): 0.259 ± 0.009 M⁻¹ s⁻¹; acceleration over the uncatalyzed reaction ([1]; 5% Secox): 18 fold; time until total completion of homodimerization ([1]; 5% mol): 0.917 days and 1 days; time until total completion of homodimerization ([1]; 10% mol): 0.75 days; yield of native RNase A (scrambled RNase A [4]): 75%; DCL equilibration time ([5]; 190 μM as fifth building block, Tris 20 mM pH 7.8, 6 °C, control 4 days): 24 h; DCL equilibration time ([5]; 1% mol (5.7 μM), pH 7.8, 6 °C, control 96 h): 72 h; DCL equilibration time ([5]; 2.5% mol (14.25 μM), pH 7.8, 6 °C, control 96 h): 48 h; DCL equilibration time ([5]; 5% mol (28.5 μM), pH 7.8, 6 °C, control 96 h): 24 h; DCL equilibration time ([5]; 10% mol (57 μM), pH 7.8, 6 °C, control 96 h): 24 h; Wavelenght (nm) of GOx Trp fluorescence emission (Supplementary Figure 47 b) (glucose oxidase (GOx) [6]; 1 % Secox): 329 nm; Wavelenght (nm) of GOx Trp fluorescence emission (Supplementary Figure 47 b) (glucose oxidase (GOx) [6]; 2.5 % Secox): 329 nm; Wavelenght (nm) of GOx Trp fluorescence emission (Supplementary Figure 47 b) (glucose oxidase (GOx) [6]; 5% Secox): 329 nm; Wavelenght (nm) of GOx Trp fluorescence emission (Supplementary Figure 47 b) (glucose oxidase (GOx) [6]; 7.5 % Secox): 329 nm; Wavelenght (nm) of GOx Trp fluorescence emission (Supplementary Figure 47 b) (glucose oxidase (GOx) [6]; 10 % Secox): 329 nm; Wavelenght (nm) of GOx Trp fluorescence emission (Supplementary Figure 47 b) (glucose oxidase (GOx) [6]; 30 % Secox): 329 nm; Wavelenght (nm) of GOx Trp fluorescence emission (Supplementary Figure 47 b) (glucose oxidase (GOx) [6]; 50 % Secox): 329 nm; Wavelenght (nm) of GOx Trp fluorescence emission (Supplementary Figure 47 b) (glucose oxidase (GOx) [6]; 100 % Secox): 329 nm; effect on GOx stability (Trp emission maximum) (glucose oxidase (GOx) [6]; whole range of concentrations measured, up to 100 % mol): No shift was observed; DCL equilibration time [7]: 24 h; effect on scrambled RNase A folding (scrambled RNase A [8]; 20 mM Secox / 100 mM GSH, pH 7.8): partial inactivation of the protein; V0 (scrambled RNase A [8]; 33 min): 73.3333 min⁻¹; V0 (scrambled RNase A [8]; 65 min): 91.6667 min⁻¹; V0 (scrambled RNase A [8]; 95 min): 91.6667 min⁻¹; V0 (scrambled RNase A [8]; 123 min): 100 min⁻¹; V0 (scrambled RNase A [8]; 188 min): 101.667 min⁻¹; V0 (scrambled RNase A [8]; 232 min): 98.3333 min⁻¹; V0 (scrambled RNase A [8]; 356 min): 105 min⁻¹; V0 (scrambled RNase A [8]; 1440 min): 101.667 min⁻¹; yield of the correctly folded enzyme (scrambled RNase A [8]; pH 7.8, 1 mM Secox/5 mM GSH, first 65 min): 92%; increase of refolding rate by replacing GSSG with Secox (scrambled RNase A [8]; scrambled RNase A): five times; DCL equilibration time [9]: 24 h; DCL equilibration time [10]: 60 h

— PMC7794297
